# In US6914045B2, “Glycopeptide antibiotics” (Wyeth Holdings Corporation, priority 2001, dated 2005):
# Legend:
# Assay in all cases: in vitro antibacterial evaluation, MIC by broth dilution
# Assay type in all cases: cell-based
# Staphylococcus sp. = settings: broth dilution, 18 hours at 35° C.; for MIC Staphylococcus aureus (GC 1131): strain GC 1131
# Outline: (§1)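 Test organisms, which included recent clinical isolates resistant to methicillin, penicillin and/or vancomycin, were inoculated at 5×10^5 CFU/mL into Muller-Hinton II […] containing antibiotic at 64-0.06 μg/mL. Minimum inhibitory concentrations were then read as the lowest level inhibiting growth.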
# Streptococcus sp. = settings: broth dilution, 18 hours at 35° C.
# Outline: as §1
# Escherichia coli = test system: Escherichia coli
# Outline: as §1
# Enterococcus sp. = settings: broth dilution, 18 hours at 35° C.
# Outline: as §1
structure (smiles),measurement,setting,value
COc1cc(OC)cc(C2OCC3OC(OC4C(CO)OC(Oc5ccc(CC6NC(=O)C(C(C)c7ccccc7)NC(=O)CNC(=O)C(CO)NC(=O)C(C(O)C7CNC(=N)N7C7OC(CO)C(O)C(O)C7O)NC(=O)C(C(O)C7CNC(=N)N7)NC6=O)cc5)C(O)C4O)C(O)C(O)C3O2)c1 (stereo not drawn) [Example 150],MIC Staphylococcus aureus (GC 1131),Staphylococcus sp.; inoculum 5×10^5 CFU/mL,4 µg/mL
same,MIC Staphylococcus aureus (ATCC 29213),Staphylococcus sp.; strain ATCC 29213,2 µg/mL
same,MIC Staphylococcus aureus (GC 1131),Staphylococcus sp.,4 µg/mL
same,MIC Staphylococcus aureus (GC 3051),Staphylococcus sp.; strain GC 3051,2 µg/mL
same,MIC Staphylococcus aureus (GC 3053),Staphylococcus sp.; strain GC 3053,8 µg/mL
same,MIC Staphylococcus aureus (GC 4541),Staphylococcus sp.; strain GC 4541,2 µg/mL
same,MIC Staphylococcus aureus (GC 4542),Staphylococcus sp.; strain GC 4542,2 µg/mL
same,MIC Staphylococcus aureus-SMITH (GC 4543),Staphylococcus sp.; strain GC 4543,2 µg/mL
same,MIC Staphylococcus aureus (GC 4544),Staphylococcus sp.; strain GC 4544,2 µg/mL
same,MIC Staphylococcus aureus (GC 4545),Staphylococcus sp.; strain GC 4545,2 µg/mL
same,MIC Staphylococcus haemolyticus (GC 4546),Staphylococcus sp.; strain GC 4546,1 µg/mL
same,MIC Coagulase Negative Staphylococcus (GC 4547),Staphylococcus sp.; strain GC 4547,2 µg/mL
same,MIC Coagulase Negative Staphylococcus (GC 4548),Staphylococcus sp.; strain GC 4548,1 µg/mL
same,MIC Coagulase Negative Staphylococcus (GC 4549),Staphylococcus sp.; strain GC 4549,1 µg/mL
same,MIC Coagulase Negative Staphylococcus (GC 4551),Staphylococcus sp.; strain GC 4551,2 µg/mL
same,MIC Coagulase Negative Staphylococcus (GC 6257),Staphylococcus sp.; strain GC 6257,1 µg/mL
same,MIC Staphylococcus aureus-SMITH (GC 4543),Staphylococcus sp.; strain SMITH GC 4543,2 µg/mL
same,MIC Streptococcus agalactiae (GC 4564),Streptococcus sp.; Streptococcus agalactiae (GC 4564),1 µg/mL
same,MIC Streptococcus pneumoniae (ATCC 6301),Streptococcus sp.; Streptococcus pneumoniae (ATCC 6301),0.25 µg/mL
same,MIC Streptococcus pneumoniae (GC 1894),Streptococcus sp.; Streptococcus pneumoniae (GC 1894),0.12 µg/mL
same,MIC Streptococcus pneumoniae (GC 4565),Streptococcus sp.; Streptococcus pneumoniae (GC 4565),0.25 µg/mL
same,MIC Streptococcus pyogenes (GC 4563),Streptococcus sp.; Streptococcus pyogenes (GC 4563),0.5 µg/mL
same,MIC Streptococcus pneumoniae (ATCC 6301),Streptococcus sp.; strain ATCC 6301,0.25 µg/mL
same,MIC Streptococcus pneumoniae (GC 1894),Streptococcus sp.; strain GC 1894,0.12 µg/mL
same,MIC Streptococcus pyogenes (GC 4563),Streptococcus sp.; strain GC 4563,0.5 µg/mL
same,MIC Streptococcus agalactiae (GC 4564),Streptococcus sp.; strain GC 4564,1 µg/mL
same,MIC Streptococcus pneumoniae (GC 4565),Streptococcus sp.; strain GC 4565,0.25 µg/mL
same,MIC Escherichia coli (ATCC 25922),"Escherichia coli; strain ATCC 25922, 18 hours at 35° C.",>64 µg/mL
same,MIC Escherichia coli (GC 4559),"Escherichia coli; strain GC 4559, 18 hours at 35° C.",32 µg/mL
same,MIC Escherichia coli (GC 4560),"Escherichia coli; strain GC 4560, 18 hours at 35° C.",1 µg/mL
same,MIC Enterococcus avium (GC 4558),Enterococcus sp.; Enterococcus avium (GC 4558),8 µg/mL
same,MIC Enterococcus faecalis (ATCC 29212),Enterococcus sp.; Enterococcus faecalis (ATCC 29212),8 µg/mL
same,MIC Enterococcus faecalis (GC 2242),Enterococcus sp.; Enterococcus faecalis (GC 2242),4 µg/mL
same,MIC Enterococcus faecalis (GC 2691),Enterococcus sp.; Enterococcus faecalis (GC 2691),4 µg/mL
same,MIC Enterococcus faecalis (GC 3059),Enterococcus sp.; Enterococcus faecalis (GC 3059),8 µg/mL
same,MIC Enterococcus faecalis (GC 4552),Enterococcus sp.; Enterococcus faecalis (GC 4552),8 µg/mL
same,MIC Enterococcus faecalis (GC 4553),Enterococcus sp.; Enterococcus faecalis (GC 4553),8 µg/mL
same,MIC Enterococcus faecalis (GC 4554),Enterococcus sp.; Enterococcus faecalis (GC 4554),8 µg/mL
same,MIC Enterococcus faecalis (GC 6189),Enterococcus sp.; Enterococcus faecalis (GC 6189),8 µg/mL
same,MIC Enterococcus faecium (GC 2243),Enterococcus sp.; Enterococcus faecium (GC 2243),8 µg/mL
same,MIC Enterococcus faecium (GC 4556),Enterococcus sp.; Enterococcus faecium (GC 4556),8 µg/mL
same,MIC Enterococcus faecium (GC 4557),Enterococcus sp.; Enterococcus faecium (GC 4557),4 µg/mL
same,MIC Enterococcus faecalis (ATCC 29212),Enterococcus sp.; strain ATCC 29212,8 µg/mL
same,MIC Enterococcus faecalis (GC 2242),Enterococcus sp.; strain GC 2242,4 µg/mL
same,MIC Enterococcus faecium (GC 2243),Enterococcus sp.; strain GC 2243,8 µg/mL
same,MIC Enterococcus faecalis (GC 2691),Enterococcus sp.; strain GC 2691,4 µg/mL
same,MIC Enterococcus faecalis (GC 3059),Enterococcus sp.; strain GC 3059,8 µg/mL
same,MIC Enterococcus faecalis (GC 4552),Enterococcus sp.; strain GC 4552,8 µg/mL
same,MIC Enterococcus faecalis (GC 4553),Enterococcus sp.; strain GC 4553,8 µg/mL
same,MIC Enterococcus faecalis (GC 4554),Enterococcus sp.; strain GC 4554,8 µg/mL
same,MIC Enterococcus faecium (GC 4556),Enterococcus sp.; strain GC 4556,8 µg/mL
same,MIC Enterococcus faecium (GC 4557),Enterococcus sp.; strain GC 4557,4 µg/mL
same,MIC Enterococcus avium (GC 4558),Enterococcus sp.; strain GC 4558,8 µg/mL
same,MIC Enterococcus faecalis (GC 6189),Enterococcus sp.; strain GC 6189,8 µg/mL
